Results as given in patent publication US20150266857A1, “NOVEL 3-INDOL SUBSTITUTED DERIVATIVES, PHARMACEUTICAL COMPOSITIONS AND METHODS FOR USE” (iTeos Therapeutics, priority 2014, published 2015).

Assays:
[1] = target: T1, human glioblastoma A172 cells, naturally expressing hTDO2 (Homo sapiens, UniProt P48775); test: Cellular assay for TDO2 activity, A172 cells; type: cell-based; details: overnight incubation, kynurenine in supernatant
T1 construct: human glioblastoma A172 cells, naturally expressing hTDO2; endogenous in cells; host or cells: human glioblastoma A172 cells (ATCC CRL-1620)
T1 sequence (P48775 whole entry): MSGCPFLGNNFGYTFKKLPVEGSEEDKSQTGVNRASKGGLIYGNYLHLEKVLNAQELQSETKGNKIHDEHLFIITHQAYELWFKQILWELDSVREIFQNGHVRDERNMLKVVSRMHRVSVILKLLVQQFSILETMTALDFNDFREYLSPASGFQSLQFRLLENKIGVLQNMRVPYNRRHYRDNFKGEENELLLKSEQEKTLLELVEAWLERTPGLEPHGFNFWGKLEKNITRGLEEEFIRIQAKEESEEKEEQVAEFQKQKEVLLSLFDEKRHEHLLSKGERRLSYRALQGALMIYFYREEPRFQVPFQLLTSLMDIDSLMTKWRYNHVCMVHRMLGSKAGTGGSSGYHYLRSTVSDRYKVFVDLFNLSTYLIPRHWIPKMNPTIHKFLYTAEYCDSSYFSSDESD
In short: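 A172 human glioblastoma cells naturally expressing TDO2, seeded at 1.25×10^4 cells/well, were incubated overnight at 37 °C in IMDM with 2% FBS and ten serial compound concentrations. Supernatant kynurenine, after TCA precipitation and Ehrlich's reagent, was read at 480 nm against a kynurenine standard curve; data curve-fitted.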

[2] = target: T2, human recombinant TDO2 enzyme (Homo sapiens, UniProt P48775); test: Assay for TDO2 enzymatic activity determination; type: biochemical; details: human recombinant TDO2, L-Trp 1 mM, kynurenine absorbance at 480 nm
T2 construct: made in house
T2 sequence (P48775 whole entry): as above
In short: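 Recombinant human TDO2 assayed in 50 mM potassium phosphate pH 7.5 with ascorbate, methylene blue and catalase. Reaction started with 1 mM L-Trp, run 1 h at room temperature, stopped with TCA, then heated at 65 °C. Kynurenine measured with Ehrlich's reagent at 480 nm against a standard curve; ten-point concentration series fitted.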

TDO2 = test: Pharmacodynamic assay for TDO2 in vivo activity: increase of blood Tryptophan levels in mice; parameters: species or system mouse; details: female BALB/c mice, 2 hours; for increase of circulating Tryptophan compared to vehicle-treated controls: p<0.0001
Procedure: The compounds of the present invention increase the amount of Tryptophan in mouse blood. Briefly, female BALB/c mice (7-8 weeks old) were treated with either a suspension of one of the compounds of the present invention in 0.5% hydroxypropyl methyl cellulose (HPMC) K4M (4000 mPa·s (cPs), Methocell™, Dow chemical)/0.25% Tween® 20 (Signma Aldrich) at different doses (30, 60 and 100 mg/kg), or with a vehicle control (0.5% HPMC K4M/0.25% Tween 20), by the oral route by gavage (dosing volume 5 mL/kg, 10 mice per group). After two hours, blood was harvested, plasma was prepared and the amount of Tryptophan present was determined by LC-MS-MS (HPLC column Unison UK-Phenyl, 75×4.6, 3 μm, flow rate 0.8 mL/min, 8 minutes gradient from 95% water+0.1% formic acid/5% Acetonitrile+0.1% formic acid to 5% water+0.1% formic acid/95% Acetonitrile+0.1% formic acid, retention time 2.4 min; API4000 MS-MS system from AB Sciex, ESI+ mode, parent ion 205.1, daughter ion 146.1).

Fc1ccc2c(-c3ccc4nc(CCN5CCNCC5)oc4c3)c[nH]c2c1 [Compound 110, 6-(6-fluoro-1H-indol-3-yl)-2-(2-(piperazin-1-yl)ethyl)benzo[d]oxazole]
IC50 [1]: 239 nM | IC50 [2]: 1630 nM | Tryptophan concentration in plasma (average ± standard error of the mean) (TDO2; 30 mg/kg oral gavage): 125 ± 7 µM | increase of circulating Tryptophan compared to vehicle-treated controls (TDO2; 30 mg/kg oral gavage): 46% | Tryptophan concentration in plasma (average ± standard error of the mean) (TDO2; 60 mg/kg oral gavage): 130.3 µM | increase of circulating Tryptophan compared to vehicle-treated controls (TDO2; 60 mg/kg oral gavage): 52% | Tryptophan concentration in plasma (average ± standard error of the mean) (TDO2; 100 mg/kg oral gavage): 153.2 µM | increase of circulating Tryptophan compared to vehicle-treated controls (TDO2; 100 mg/kg oral gavage): 78%
